The record followed here is publication PMC4955970, “Stable, synthetic analogs of diadenosine tetraphosphate inhibit rat and human P2X3 receptors and inflammatory pain” (Molecular Pain, 2016).

In the experiment the target is T1, human P2X3 receptors (hP2X3Rs) (Homo sapiens, UniProt P56373).
T1 construct: transfected with rat or human full-length P2X3 cDNA subcloned into pIRES2-EGFP; expressed in transfected cells; host or cells: HEK293T (HEK293 in the results)
T1 sequence (P56373 1-397): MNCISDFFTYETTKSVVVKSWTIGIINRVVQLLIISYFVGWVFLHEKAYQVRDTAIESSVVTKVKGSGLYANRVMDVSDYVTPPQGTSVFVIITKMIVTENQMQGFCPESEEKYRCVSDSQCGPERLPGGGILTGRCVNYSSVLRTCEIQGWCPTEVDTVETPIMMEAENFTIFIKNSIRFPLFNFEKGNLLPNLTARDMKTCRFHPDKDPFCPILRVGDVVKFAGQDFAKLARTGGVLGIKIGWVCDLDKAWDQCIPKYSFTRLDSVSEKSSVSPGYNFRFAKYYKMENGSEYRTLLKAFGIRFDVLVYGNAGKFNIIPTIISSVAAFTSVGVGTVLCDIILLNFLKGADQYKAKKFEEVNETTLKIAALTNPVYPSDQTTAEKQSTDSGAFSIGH
The experiment in a line: Whole-cell patch clamp on HEK293 cells expressing recombinant human P2X3Rs. The class given is cell-based. Here is the method:
Rat trigeminal, nodose, or dorsal root ganglion (TG, NG, and DRG, respectivley) neurons in culture were prepared as described previously.[46],[47] Neurons were plated on poly-L-lysine (0.2 mg/ml)-coated Petri dishes and cultured for one to two days under an atmosphere containing 5% CO2. Cells were used within two days of plating when they lacked processes. HEK293T cells were prepared as reported previously[32],[48] and transfected with rat or human full-length P2X3 cDNA subcloned into pIRES2-EGFP (Clontech, Mountain View, CA, USA).
TG, NG, DRG, or HEK cells were recorded in the whole-cell configuration while being continuously superfused (at 2 ml/min) with control solution containing (in mM): 152 NaCl, 5 KCl, 1 MgCl2, 2 CaCl2, 10 glucose, and 10 HEPES; pH was adjusted to 7.4 with NaOH and osmolarity was adjusted to 320 mOsM with glucose. […] Responses to selective P2X3R agonist α,β-methylene-ATP (α,β-meATP; resistant to ectoATPase hydrolysis, Sigma-Aldrich) were measured using an EPC-9 amplifier operated by HEKA Patch Master software (HEKA Electronik, Germany). Cells were voltage-clamped at −70 mV. In most cells, series resistance was compensated by 80%. To determine EC50 values, dose-response curves were constructed for α,β-meATP by administering different agonist doses same cells and fitting data to a logistic equation (Origin 8.0, Microcal, Northampton, MA).
Agonists and antagonists were applied (usually for 2 s) via a rapid superfusion system (Rapid Solution Changer RSC-200; BioLogic Science Instruments, Grenoble, France) placed 100 to 150 µm near the cell. The time for the solution exchange across the cell was approximately 30 ms, as judged with liquid junction potential measurements. All chemicals, including enzymes for cell culture, were from Sigma-Aldrich (St. Louis, MO). […]
The peak amplitudes of the responses were measured using HEKA Patch Master software. […] All data are presented as mean ± SEM (n = the number of cells) with statistical significance assessed by paired t-test (for parametric data) or Mann-Whitney rank-sum test (for nonparametric data). […]

Each structure is given as a SMILES string.

As for `Nc1ncnc2c1ncn2[C@@H]1O[C@H](COP(=O)(O)OP(=O)(O)NP(=O)(O)OP(=O)(O)OC[C@H]2O[C@@H](n3cnc4c(N)ncnc43)[C@H](O)[C@@H]2O)[C@@H](O)[C@H]1O` [AppNHppA, diadenosine 5′,5′′′-P^1,P^4-(β,γ-imido)tetraphosphate], where the note is “HEK293, read-out: α,β-meATP test currents, % of control”, the remaining activity at 1 µM came to 12 ± 4%. Further, the remaining activity at 0.1 µM (HEK293, read-out: α,β-meATP test responses, % of control) was found to be 48 ± 8%. Moreover, the activity at 0.01 µM (HEK293, read-out: α,β-meATP-activated currents, % of control values) stood at 80 ± 5%.
